Common to all, as to test: relative viability (nuclei count vs DMSO), 5 days (fraction); higher = more cells survive
Compound in the test “Dinaciclib + Crizotinib”: CCc1cnn2c(NCc3ccc[n+]([O-])c3)cc(N3CCCC[C@H]3CCO)nc12 [Dinaciclib] + C[C@@H](Oc1cc(-c2cnn(C3CCNCC3)c2)cnc1N)c1c(Cl)ccc(F)c1Cl [Crizotinib] (partner 1 µM)
In outline: (§1)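 Relative viability divides the nuclei count in treated wells by that in vehicle wells. Lung cancer cell lines were seeded in 1536-well plates, dosed by pin tool the next day, and fixed and stained after 5 days in one step with final 0.05% Triton X-100, 1% formaldehyde and 1 ug/ml Hoechst. Dosing was a single drug or a fixed anchor-drug dose plus five library-drug doses (not always all listed) in √10 steps, and values are medians of duplicate plates imaged at 4×.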

Compound in the test “Dinaciclib + Pemetrexed”: CCc1cnn2c(NCc3ccc[n+]([O-])c3)cc(N3CCCC[C@H]3CCO)nc12 [Dinaciclib] + Nc1nc2[nH]cc(CCc3ccc(C(=O)N[C@@H](CCC(=O)O)C(=O)O)cc3)c2c(=O)[nH]1 [Pemetrexed] (partner 0.2 µM)
In outline:
as §1

Compound in the test “Dinaciclib + Decitabine”: CCc1cnn2c(NCc3ccc[n+]([O-])c3)cc(N3CCCC[C@H]3CCO)nc12 [Dinaciclib] + Nc1ncn([C@H]2C[C@H](O)[C@@H](CO)O2)c(=O)n1 [Decitabine] (partner 2 µM)
Put shortly: as §1

Compound in the test “Dinaciclib + Bortezomib”: CCc1cnn2c(NCc3ccc[n+]([O-])c3)cc(N3CCCC[C@H]3CCO)nc12 [Dinaciclib] + CC(C)C[C@H](NC(=O)[C@H](Cc1ccccc1)NC(=O)c1cnccn1)B(O)O [Bortezomib] (partner 0.002 µM)
In outline: as §1

Compound in the test “Dinaciclib + OSI-027”: CCc1cnn2c(NCc3ccc[n+]([O-])c3)cc(N3CCCC[C@H]3CCO)nc12 [Dinaciclib] + COc1cccc2cc(-c3nc([C@H]4CC[C@H](C(=O)O)CC4)n4ncnc(N)c34)[nH]c12 [OSI-027] (partner 0.5 µM)
In outline: as §1

As for NCI-H3122, the relative viability in the test with Dinaciclib + Crizotinib (first compound 0.009487 µM) stood at 0.253; with Dinaciclib + Crizotinib (first compound 0.03 µM) it was 0.127; with Dinaciclib + Crizotinib (first compound 0.09487 µM) it was 0.145; with Dinaciclib + Crizotinib (first compound 0.3 µM), 0.13; with Dinaciclib + Pemetrexed (first compound 0.009487 µM) it was 0.245; with Dinaciclib + Pemetrexed (first compound 0.03 µM) it was 0.106. For the same cell line, the relative viability came out at 0.0981 with Dinaciclib + Pemetrexed (first compound 0.09487 µM); 0.0956 with Dinaciclib + Pemetrexed (first compound 0.3 µM); 0.404 with Dinaciclib + Decitabine (first compound 0.009487 µM); 0.117 in the test with Dinaciclib + Decitabine (first compound 0.03 µM); 0.121 in the test with Dinaciclib + Decitabine (first compound 0.09487 µM); 0.107 with Dinaciclib + Decitabine (first compound 0.3 µM). Further, the relative viability with Dinaciclib + Bortezomib (first compound 0.009487 µM) turned out to be 1; with Dinaciclib + Bortezomib (first compound 0.03 µM), 0.195; in the test with Dinaciclib + Bortezomib (first compound 0.09487 µM), 0.139; with Dinaciclib + Bortezomib (first compound 0.3 µM), 0.151; with Dinaciclib + OSI-027 (first compound 0.009487 µM), 0.407; in the test with Dinaciclib + OSI-027 (first compound 0.03 µM), 0.108. Further, the relative viability with Dinaciclib + OSI-027 (first compound 0.09487 µM) worked out at 0.0984; with Dinaciclib + OSI-027 (first compound 0.3 µM), 0.114.
For PC-3 [JPC-3], the relative viability in the test with Dinaciclib + Crizotinib (first compound 0.009487 µM) turned out to be 0.953; with Dinaciclib + Crizotinib (first compound 0.03 µM), 0.799; with Dinaciclib + Crizotinib (first compound 0.09487 µM), 0.232; with Dinaciclib + Crizotinib (first compound 0.3 µM) it was 0.198; with Dinaciclib + Pemetrexed (first compound 0.009487 µM), 1.12; with Dinaciclib + Pemetrexed (first compound 0.03 µM), 0.53. Moreover, the relative viability was determined as 0.289 with Dinaciclib + Pemetrexed (first compound 0.09487 µM); 0.285 with Dinaciclib + Pemetrexed (first compound 0.3 µM); 0.794 with Dinaciclib + Decitabine (first compound 0.009487 µM); 0.671 with Dinaciclib + Decitabine (first compound 0.03 µM); 0.34 with Dinaciclib + Decitabine (first compound 0.09487 µM); 0.302 with Dinaciclib + Decitabine (first compound 0.3 µM). Also, the relative viability with Dinaciclib + Bortezomib (first compound 0.009487 µM) stood at 0.679; with Dinaciclib + Bortezomib (first compound 0.03 µM), 0.791; with Dinaciclib + Bortezomib (first compound 0.09487 µM), 0.226; in the test with Dinaciclib + Bortezomib (first compound 0.3 µM), 0.231; with Dinaciclib + OSI-027 (first compound 0.009487 µM), 0.764; in the test with Dinaciclib + OSI-027 (first compound 0.03 µM), 0.693. Further, the relative viability is 0.249 in the test with Dinaciclib + OSI-027 (first compound 0.09487 µM) and 0.209 in the test with Dinaciclib + OSI-027 (first compound 0.3 µM).
For the cell line PC-14, the relative viability with Dinaciclib + Crizotinib (first compound 0.009487 µM) was 0.651; in the test with Dinaciclib + Crizotinib (first compound 0.03 µM) it was 0.241; in the test with Dinaciclib + Crizotinib (first compound 0.09487 µM), 0.0877; in the test with Dinaciclib + Crizotinib (first compound 0.3 µM), 0.0668; with Dinaciclib + Pemetrexed (first compound 0.009487 µM), 0.111; in the test with Dinaciclib + Pemetrexed (first compound 0.03 µM), 0.0682. Also, the relative viability with Dinaciclib + Pemetrexed (first compound 0.09487 µM) stood at 0.0557; with Dinaciclib + Pemetrexed (first compound 0.3 µM), 0.0571; with Dinaciclib + Decitabine (first compound 0.009487 µM), 0.157; with Dinaciclib + Decitabine (first compound 0.03 µM) it was 0.0718; with Dinaciclib + Decitabine (first compound 0.09487 µM), 0.0642; in the test with Dinaciclib + Decitabine (first compound 0.3 µM), 0.0671. For the same cell line, the relative viability in the test with Dinaciclib + Bortezomib (first compound 0.009487 µM) came out at 0.807; in the test with Dinaciclib + Bortezomib (first compound 0.03 µM) it was 0.109; in the test with Dinaciclib + Bortezomib (first compound 0.09487 µM), 0.0534; in the test with Dinaciclib + Bortezomib (first compound 0.3 µM), 0.0475; with Dinaciclib + OSI-027 (first compound 0.009487 µM) it was 0.66; in the test with Dinaciclib + OSI-027 (first compound 0.03 µM), 0.0841. Also, the relative viability is 0.0393 with Dinaciclib + OSI-027 (first compound 0.09487 µM) and 0.0423 in the test with Dinaciclib + OSI-027 (first compound 0.3 µM).
As for RERF-LC-KJ, the relative viability with Dinaciclib + Crizotinib (first compound 0.009487 µM) was 0.885; with Dinaciclib + Crizotinib (first compound 0.03 µM) it was 0.179; with Dinaciclib + Crizotinib (first compound 0.09487 µM), 0.131; with Dinaciclib + Crizotinib (first compound 0.3 µM), 0.122; with Dinaciclib + Pemetrexed (first compound 0.009487 µM) it was 0.489; with Dinaciclib + Pemetrexed (first compound 0.03 µM), 0.161. Besides, the relative viability with Dinaciclib + Pemetrexed (first compound 0.09487 µM) amounted to 0.126; with Dinaciclib + Pemetrexed (first compound 0.3 µM) it was 0.121; in the test with Dinaciclib + Decitabine (first compound 0.009487 µM) it was 0.476; in the test with Dinaciclib + Decitabine (first compound 0.03 µM), 0.157; with Dinaciclib + Decitabine (first compound 0.09487 µM), 0.157; in the test with Dinaciclib + Decitabine (first compound 0.3 µM), 0.147. The relative viability was determined as 1.1 in the test with Dinaciclib + Bortezomib (first compound 0.009487 µM); 0.327 with Dinaciclib + Bortezomib (first compound 0.03 µM); 0.157 with Dinaciclib + Bortezomib (first compound 0.09487 µM); 0.173 in the test with Dinaciclib + Bortezomib (first compound 0.3 µM); 0.461 in the test with Dinaciclib + OSI-027 (first compound 0.009487 µM); 0.177 in the test with Dinaciclib + OSI-027 (first compound 0.03 µM). The results for the relative viability in the test with Dinaciclib + OSI-027 (first compound 0.09487 µM) and in the test with Dinaciclib + OSI-027 (first compound 0.3 µM) were 0.185 and 0.182, respectively.
On to SK-LU-1, for which the relative viability is 0.602 with Dinaciclib + Crizotinib (first compound 0.009487 µM); 0.207 with Dinaciclib + Crizotinib (first compound 0.03 µM); 0.19 with Dinaciclib + Crizotinib (first compound 0.09487 µM); 0.204 with Dinaciclib + Crizotinib (first compound 0.3 µM); 0.97 with Dinaciclib + Pemetrexed (first compound 0.009487 µM); 0.226 with Dinaciclib + Pemetrexed (first compound 0.03 µM). Also, the relative viability with Dinaciclib + Pemetrexed (first compound 0.09487 µM) stood at 0.229; in the test with Dinaciclib + Pemetrexed (first compound 0.3 µM), 0.185; with Dinaciclib + Decitabine (first compound 0.009487 µM), 0.64; in the test with Dinaciclib + Decitabine (first compound 0.03 µM) it was 0.234; with Dinaciclib + Decitabine (first compound 0.09487 µM), 0.211; with Dinaciclib + Decitabine (first compound 0.3 µM), 0.227. The relative viability with Dinaciclib + Bortezomib (first compound 0.009487 µM) is 1.09; with Dinaciclib + Bortezomib (first compound 0.03 µM), 0.17; in the test with Dinaciclib + Bortezomib (first compound 0.09487 µM) it was 0.188; with Dinaciclib + Bortezomib (first compound 0.3 µM), 0.193; with Dinaciclib + OSI-027 (first compound 0.009487 µM) it was 0.425; with Dinaciclib + OSI-027 (first compound 0.03 µM), 0.116. For the same cell line, the relative viability with Dinaciclib + OSI-027 (first compound 0.09487 µM) was 0.145; in the test with Dinaciclib + OSI-027 (first compound 0.3 µM) it was 0.112.
Take SW 1573: the relative viability in the test with Dinaciclib + Crizotinib (first compound 0.009487 µM) was found to be 0.608; with Dinaciclib + Crizotinib (first compound 0.03 µM), 0.0718; with Dinaciclib + Crizotinib (first compound 0.09487 µM), 0.066; with Dinaciclib + Crizotinib (first compound 0.3 µM), 0.0807; with Dinaciclib + Pemetrexed (first compound 0.009487 µM) it was 0.345; in the test with Dinaciclib + Pemetrexed (first compound 0.03 µM), 0.0723. Besides, the relative viability with Dinaciclib + Pemetrexed (first compound 0.09487 µM) is 0.07; in the test with Dinaciclib + Pemetrexed (first compound 0.3 µM) it was 0.0635; in the test with Dinaciclib + Decitabine (first compound 0.009487 µM), 0.314; with Dinaciclib + Decitabine (first compound 0.03 µM) it was 0.0932; in the test with Dinaciclib + Decitabine (first compound 0.09487 µM), 0.065; with Dinaciclib + Decitabine (first compound 0.3 µM) it was 0.0758. Further, the relative viability with Dinaciclib + Bortezomib (first compound 0.009487 µM) is 0.777; with Dinaciclib + Bortezomib (first compound 0.03 µM), 0.104; with Dinaciclib + Bortezomib (first compound 0.09487 µM), 0.0824; in the test with Dinaciclib + Bortezomib (first compound 0.3 µM), 0.0954; in the test with Dinaciclib + OSI-027 (first compound 0.009487 µM) it was 0.372; with Dinaciclib + OSI-027 (first compound 0.03 µM) it was 0.0612. Further, the values for the relative viability in the test with Dinaciclib + OSI-027 (first compound 0.09487 µM) and in the test with Dinaciclib + OSI-027 (first compound 0.3 µM) were 0.0644 and 0.0645, respectively.
For the cell line UMC-11, the relative viability in the test with Dinaciclib + Crizotinib (first compound 0.009487 µM) was determined as 0.157; with Dinaciclib + Crizotinib (first compound 0.03 µM) it was 0.0965; with Dinaciclib + Crizotinib (first compound 0.09487 µM), 0.094; with Dinaciclib + Crizotinib (first compound 0.3 µM) it was 0.0987; with Dinaciclib + Pemetrexed (first compound 0.009487 µM) it was 0.411; with Dinaciclib + Pemetrexed (first compound 0.03 µM), 0.18. The relative viability with Dinaciclib + Pemetrexed (first compound 0.09487 µM) was 0.189; in the test with Dinaciclib + Pemetrexed (first compound 0.3 µM), 0.146; in the test with Dinaciclib + Decitabine (first compound 0.009487 µM), 0.531; with Dinaciclib + Decitabine (first compound 0.03 µM) it was 0.197; with Dinaciclib + Decitabine (first compound 0.09487 µM), 0.2; with Dinaciclib + Decitabine (first compound 0.3 µM), 0.169. Besides, the relative viability turned out to be 0.196 with Dinaciclib + Bortezomib (first compound 0.009487 µM); 0.107 with Dinaciclib + Bortezomib (first compound 0.03 µM); 0.108 with Dinaciclib + Bortezomib (first compound 0.09487 µM); 0.131 with Dinaciclib + Bortezomib (first compound 0.3 µM); 0.267 in the test with Dinaciclib + OSI-027 (first compound 0.009487 µM); 0.203 in the test with Dinaciclib + OSI-027 (first compound 0.03 µM). Also, the relative viability in the test with Dinaciclib + OSI-027 (first compound 0.09487 µM) was 0.177; with Dinaciclib + OSI-027 (first compound 0.3 µM), 0.153.

The values are drawn from the supplement of paper PMC10307832.
